A short description of series [1]: In vivo pharmacokinetic study, oral gavage. Details: species or system BALB/c mice. An excerpt:
(§1) Liquid chromatography and mass spectrometry (LCMS/MS): The ultra-performance liquid chromatography mass spectrometry system (UPLC-MS/MS) consisted of a Shimadzu 8060NX mass spectrometer and Nexera Series UPLC (Shimadzu Scientific Instruments, Columbia, MD). Analyte separation was achieved utilizing an Acquity UPLC® BEH column (C18, 2.1×100 mm, 1.7 μm) equipped with an Acquity UPLC C18 guard column (Waters, Inc. Milford MA). The mobile phase consisted of water containing 0.1% formic acid (mobile phase A) and methanol (mobile phase B) at a flow rate of 0.25 mL/min operated at room temperature. The total run time was set to last 7.5 min with a gradient elution as follows: 35% B, increasing to 95% B over 3.5 minutes, then held constant for 3.0 minutes, and finally brought back to the initial condition of 35% B in 0.20 minutes followed by 1-minute re-equilibration. The injection volume (2 μL) was consistent for all samples. The auto-sampler chamber was maintained at 4° C. throughout the analysis.
The MS/MS system was operated at unit resolution in the multiple reaction monitoring (MRM) in positive ESI mode, using precursor ion>product ion combinations of 427.20>105.10 for A1-r and 413.15>265.10 m/z for 4r. The mass spectrometer source settings were optimized to the following: nebulizer gas: 2.0 L/min; heating gas: 10 L/min; drying gas: 10 L/min; interface temperature: 300° C.; desolvation line temperature: 250° C.; heat block temperature: 400° C. Data acquisition and quantitation were performed using LabSolutions software Ver.5.99 (Shimadzu Scientific Inc, Columbia, MD).
(§2) Plasma sample preparation: Plasma samples were prepared by spiking 5 μL of the appropriate calibration (CC) and quality (QCs) control working stock into a 45 μL blank mouse plasma. The concentration of the CC ranged from 0.2-1000 ng/mL with the final concentrations of 0.2, 0.5, 1, 5, 10, 50, 100, 500, and 1000 ng/mL. A simple protein precipitation technique using Phree 96 well phospholipid elimination plate (Phenomenex Inc, Torrance CA.) was utilized to isolate analyte from the plasma matrix. The CC, QCs and study plasma samples were added to Phree 96 well plate and spiked with 10 μL of IS a working solution. The precipitation of the matrix proteins was carried out using 300 μL of ice-cold acetonitrile. The plate was again vortexed on mixmate at 950 rpm for 2 min followed by applied 5 psi positive pressure for 10 min (Resprep VM-96 Vacuum Manifold for 96-Well Plates, Catalog #25858) (Restek; Bellefonte, PA) to collect the supernatant. Two microliters of the reconstituted sample was injected into LC-MS/MS for analysis.
In vivo pharmacokinetic studies: Animal studies were approved by the University of Nebraska Medical Center (UNMC) Institutional Animal Care and Use Committee (IACUC protocol number 17-046-06-FC). BALB/c mice were purchased from Charles River Labs. Pharmacokinetic (PK) studies of A1-r and 4r were conducted in BALB/c mice. Animals were housed in the University of Nebraska Medical Center animal facility, for at least 7 days prior to the experiments, in order to acclimatize the animals to the laboratory conditions, at a temperature of 23-24° C., relative humidity of 40-70% and 12/12 h light/dark cycles with free access to food and water. The dosing solution was made of DMSO-Polyethylene glycol 400 (PEG400)-Propylene glycol (PG)-EtOH-Cremophore-PBS (2/20/10/10/5/53% v/v). Compound A1-r or 4r (10 mg/kg) was administered separately by oral gavage. After dosing, approximately 50 μL of blood was collected from the maxillary vein at 5, 15, 30 minutes and 1, 2, 7, and 24 hr (5 mice/group/per time point). A total of three blood samples were collected, with the third blood sample a terminal collection. Plasma was separated by centrifugation at 4,000×g at 4° C. for 10 minutes. The collected plasma samples were stored at −80° C. until analysis. […]

Series [2] can be described thus: In vitro metabolic stability in human liver microsomes. In kind it is in vitro ADME. The following applies: 1 μg/mL. Here is the method:
(§3) In vitro metabolic stability in liver microsomes: Metabolic stability was assessed using mouse and human liver microsomes, (XenoTech, LLC, Lenexa, KS). Incubation of A1-r and 4r with the microsome fractions was performed in triplicate utilizing a concentration of 1 μg/mL as previously described. Serial samples (40 μL) were collected at selected time intervals and quenched with 300 μL of acetonitrile and then spiked with 10 μL of IS (0.5 μg/mL). All the samples were vortexed and centrifuged at 13,000×g for 15 min, and the supernatant was collected and transferred to an autosampler vial and injected (2 μL) onto the LC-MS/MS system. Testosterone, 7-HC and diclofenac were used as positive controls to ensure that the microsomes and incubation conditions were appropriate to conduct metabolism studies.

The nature of series [3]: In vitro stability in simulated gastric fluid (SGF). The series is classed as in vitro ADME. The following applies: SGF for 1 h. Here is the method:
(§4) In vitro stability studies: Gastrointestinal (GI) fluid stability studies were performed in simulated gastric fluid (SGF) and simulated intestinal fluid (SIF). All the required media were prepared according to the USP guidelines. Mouse plasma stability were performed for neat-spiked and plasma spiked samples (pre-extraction) at 37° C. for 4 h. In addition to the analyte stability in matrix, at 48 h stability of the extracted samples was performed at 4° C. in the autosampler.

Series [4] in a line: In vitro metabolic stability in mouse liver microsomes. In kind it is in vitro ADME. As to conditions: 1 μg/mL. As to the method:
as §3
(In general: Microsomes from liver hold many membrane-bound enzymes, among them those of drug oxidation.)

Series [5] relates to 22Rv1 tumor xenograft model of prostate cancer. The experiment in a line: 22Rv1 tumor xenograft study. In kind it is in vivo, NSG mice. As to the method: Tumor xenograft study: All animal experiments were carried out according to approved Institutional Animal Care and Use Committee protocols at the University of Texas Southwestern Medical Center (Dallas, TX). Five-week-old female NSG mice (low circulating testosterone) were implanted with 3×10^6 22 Rv1 cells (ATCC, mycoplasma negative) in matrigel. When tumor volume reached approximately 125 mm^3 (day 11), mice were randomly divided into three groups of six mice. One group was treated with vehicle control PO (0.5% Methocel A4M+0.1% Tween 80)+vehicle IP (10% DMSO/10% cremophor EL/80% D5W). One group was treated with vehicle PO+IP 25 mg/kg A1-r in 10% DMSO/10% cremophor EL/80% D5W. One group was treated with vehicle PO+IP 50 mg/kg 4r in 10% DMSO/10% cremophor EL/80% D5W. Dosing was continued for a total of 26 days. Tumor volumes were measured twice a week with Vernier calipers, and tumor volume was calculated as (L×W^2)×3.14)/6 as previously reported. 2-3 hours after a final IP dose, animals were humanely euthanized, and tumors were collected, weighed, and frozen in liquid nitrogen after taking pictures.

The nature of series [6]: In vitro stability in mouse plasma. The series is classed as in vitro ADME.
From the text: as §1
as §2, with “analysis. […]” for “analysis.”

Series [7] is described as follows: In vitro stability in simulated intestinal fluid (SIF). In kind it is in vitro ADME. As to conditions: SIF for 2 h. Here is the method:
as §4

Another series deals with AKR1C1 (Homo sapiens (Human), UniProt Q04828). As to the kind of experiment: AKR enzyme inhibition assay, NADP+ dependent oxidation of S-tetralol, AKR1C1. The series is classed as biochemical. The following applies: Table 2; recombinant enzyme, S-tetralol at Km; read-out: IC50 ± SD AKR1C1.
Another series deals with AKR1C4 (Homo sapiens (Human), UniProt P17516). As to the kind of experiment: AKR enzyme inhibition assay, AKR1C4. In kind it is biochemical. The following applies: Table 2; recombinant enzyme; read-out: IC50 ± SD AKR1C4.
The next series addresses AKR1C3 (Homo sapiens (Human), UniProt P42330). The experiment in a line: AKR enzyme inhibition assay, NADP+ dependent oxidation of S-tetralol, AKR1C3. In kind it is biochemical. As to conditions: Table 2.
In another series the target is AKR1C2 (Homo sapiens (Human), UniProt P52895). As to the kind of experiment: AKR enzyme inhibition assay, NADP+ dependent oxidation of S-tetralol, AKR1C2 counter-screen. The series is classed as biochemical. As to conditions: Table 2; recombinant enzyme, S-tetralol at Km; read-out: IC50 ± SD AKR1C2.
The mark [8] stands for this setting: after oral administration (10 mg/kg) of 4r, Balb/c mice, plasma, mean ± SD, n = 5.
The mark [9] stands for this setting: after oral administration (10 mg/kg) of A1-r, Balb/c mice, mean ± SD, n = 5.
Setting [10] is: after oral administration (10 mg/kg) of A1-r, Balb/c mice, plasma, mean ± SD, n = 5.

Sequence of AKR1C3 (P42330 whole entry): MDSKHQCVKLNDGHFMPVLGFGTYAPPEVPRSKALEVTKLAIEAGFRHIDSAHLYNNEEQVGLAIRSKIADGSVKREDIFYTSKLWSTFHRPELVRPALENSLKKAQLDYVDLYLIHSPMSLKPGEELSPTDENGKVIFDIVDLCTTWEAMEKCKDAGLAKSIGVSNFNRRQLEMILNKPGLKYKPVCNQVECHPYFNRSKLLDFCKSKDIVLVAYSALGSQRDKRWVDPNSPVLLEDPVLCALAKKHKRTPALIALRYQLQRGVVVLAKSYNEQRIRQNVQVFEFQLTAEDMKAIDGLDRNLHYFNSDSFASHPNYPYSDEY
Sequence of AKR1C1 (Q04828 whole entry): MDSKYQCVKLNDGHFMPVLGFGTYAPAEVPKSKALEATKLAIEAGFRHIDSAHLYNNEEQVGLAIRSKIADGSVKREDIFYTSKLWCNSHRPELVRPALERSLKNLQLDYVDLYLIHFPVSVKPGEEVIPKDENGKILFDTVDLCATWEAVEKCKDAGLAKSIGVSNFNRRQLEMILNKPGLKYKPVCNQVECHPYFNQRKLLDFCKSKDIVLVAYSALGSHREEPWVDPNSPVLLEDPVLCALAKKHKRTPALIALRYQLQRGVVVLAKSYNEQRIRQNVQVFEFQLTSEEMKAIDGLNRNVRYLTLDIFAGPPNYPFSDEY
Sequence of AKR1C4 (P17516 whole entry): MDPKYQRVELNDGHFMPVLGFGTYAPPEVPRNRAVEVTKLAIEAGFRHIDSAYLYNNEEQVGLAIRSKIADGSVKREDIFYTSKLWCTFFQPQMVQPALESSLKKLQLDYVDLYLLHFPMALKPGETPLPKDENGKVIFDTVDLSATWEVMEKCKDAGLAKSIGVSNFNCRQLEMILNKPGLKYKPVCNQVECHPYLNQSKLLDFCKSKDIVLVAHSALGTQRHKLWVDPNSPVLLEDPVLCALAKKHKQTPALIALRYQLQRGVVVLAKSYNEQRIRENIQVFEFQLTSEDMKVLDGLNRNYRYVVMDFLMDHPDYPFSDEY
Sequence of AKR1C2 (P52895 whole entry): as the sequence (Q04828 whole entry) above, with T38V, R47H, L54V, C87S, V151M, R170H, Q172L counted along it
Protocol for AKR1C1: (§5) Assay of enzyme activity: The dehydrogenase activities of AKR1C1, AKR1C2, and AKR1C3 were determined by measuring the formation of NADH formation at 340 nm using Beckman DU640 spectrophotometer. […] After continuously monitoring for 5 min, the increase in UV absorption using different concentrations of enzyme were recorded to calculate the initial velocity and determine enzyme specific activity. IC50 value determination: The inhibitory potency for each compound was represented by IC50 value and measured as described before. […] The concentration of S-tetralol used in the assays for each AKR1C isoform was equal to the Km value for the respective enzyme so that IC50 values could be directly compared assuming a competitive pattern of inhibition. […] In this equation, “range” is the fitted uninhibited value minus the “background”, and “S” is a slope factor. “I” is the concentration of inhibitor. The equation assumes that y falls with increasing “I”.
Protocol for AKR1C2: (§6) Structure-Activity Relationship: The ability of compounds to inhibit AKR1C3 in the first instance were determined by measuring the NADP+ dependent oxidation of S-tetralol catalyzed by recombinant enzyme as described herein. […] Assay of enzyme activity: The dehydrogenase activities of AKR1C1, AKR1C2, and AKR1C3 were determined by measuring the formation of NADH formation at 340 nm using Beckman DU640 spectrophotometer. […] After continuously monitoring for 5 min, the increase in UV absorption using different concentrations of enzyme were recorded to calculate the initial velocity and determine enzyme specific activity. IC50 value determination: The inhibitory potency for each compound was represented by IC50 value and measured as described before. […] The concentration of S-tetralol used in the assays for each AKR1C isoform was equal to the Km value for the respective enzyme so that IC50 values could be directly compared assuming a competitive pattern of inhibition. […] In this equation, “range” is the fitted uninhibited value minus the “background”, and “S” is a slope factor. “I” is the concentration of inhibitor. The equation assumes that y falls with increasing “I”.
Protocol for AKR1C3: as §6
Protocol for AKR1C4: as §5

On to `COC(=O)/C=C/c1cc(C(=O)NCc2ccc(C)cc2)cc(-c2ccc3ncnn3c2)c1` [Compound 4r, Methyl (E)-3-(3-([1,2,4]triazolo[1,5-a]pyridin-6-yl)-5-((4-methylbenzyl)carbamoyl)phenyl)acrylate], for which, in [1] (setting [8]), the AUC0-t was 36.416 ng·h/mL; the Cmax (in general, the maximum level reached in the sampled fluid or tissue) is listed as 92.796 ng/mL; the Tmax (usually the time from dosing to the highest level) is 19 min. Also, the “detection in systemic circulation 1 hour post administration” value in series [1] (oral 10 mg/Kg 4r, 1 hour post administration) is recorded as “undetectable”. Moreover, in [2], the “degraded in HLM” value was “approximately 25%”. Further, in [3], the “stability in simulated gastric fluid (SGF)” value is given as “stable”. In addition, in [4], the “degraded in MLM” value was “approximately 25%”. Also, the “reduction of tumor volume” value in series [5] (25 mg/Kg IP once a day for 26 days, 22Rv1 tumors in NSG mice) is listed as “approximately 30%”. Further, in [5] (50 mg/Kg IP once a day for 26 days, 22Rv1 tumors in NSG mice), the “reduction of tumor burden” value is reported as “approximately 45%”. Also, in series [5] (25 and 50 mg/Kg IP once a day for 26 days, NSG 22Rv1 tumor-bearing mice), the mouse body weight entry is “no observed loss of mouse body weight”. The “time until reduced to below detectable limits in mouse plasma” value in [6] (exposure to mouse plasma) is no more than 30 min. Further, in series [6] (mouse plasma, 37° C.), the “stability in mouse plasma” value is reported as “unstable”. Also, the “stability in simulated intestinal fluid (SIF)” value in series [7] was “stable”.

As to `Cc1ccc(CNC(=O)c2cc(/C=C/C(=O)O)cc(-c3ccc4ncnn4c3)c2)cc1` [Compound A1-r, (E)-3-(3-([1,2,4]triazolo[1,5-a]pyridin-6-yl)-5-((4-methylbenzyl)carbamoyl)phenyl)acrylic acid], in series [1] (setting [8]), the AUC0-t came to 6382.8 ng·h/mL, the Cmax stood at 11599.4 ng/mL and the Tmax was determined as 12 min. Besides, in series [1] (setting [9]), the CI/F was 323 mL/min/kg, the “Extrapolated AUC %” value is listed as 28.8% and the Vz/F amounted to 405.0 L/kg. In [1] (setting [10]), the AUC0-INF came out at 515.1 ng·h/mL, the AUC0-t was 367.6 ng·h/mL, the Cmax came out at 174.8 ng/mL and the Tmax turned out to be 6 min. Besides, in series [1] (setting [10]), the t1/2 amounted to 864 min. Moreover, in [1] (oral 10 mg/Kg 4r, 24 hours), the “detection at the last study point (24 hours)” value is on record as “detected”. Moreover, the “time at which detected in plasma after oral administration” value in series [1] (oral 10 mg/Kg, male Balb/C mice) is no more than 5 min. For the same molecule, the “metabolic stability in HLM” value in series [2] (% parent remaining) was “stable”. Also, the IC50 (commonly the concentration needed to halve the response being measured) at AKR1C1 was greater than 100 µM. For the same molecule, the “stability in simulated gastric fluid (SGF)” value in series [3] is on record as “stable”. At AKR1C4, the IC50 is 43 ± 6 µM. In addition, in series [4] (% parent remaining), the “metabolic stability in MLM” value is “stable”. The “Selectivity 1C2:1C3” value on AKR1C3 (ratio of AKR1C2 to AKR1C3 IC50) is on record as 1216. In addition, at AKR1C3 (recombinant enzyme, S-tetralol at Km, read-out: IC50 ± SD AKR1C3), the IC50 is 0.051 ± 0.006 µM. In addition, the “time stable in mouse plasma” value in series [6] (mouse plasma) is on record as “over 240 minutes”. Further, the IC50 on AKR1C2 was found to be 62 ± 21 µM. Moreover, the “stability in simulated intestinal fluid (SIF)” value in series [7] is on record as “stable”.
